In patent publication US10646455B2, “Uses of hydroxyanigorufone” (TCI CO., LTD, priority 2017, dated 2020):

Key:
Assay type in all cases: cell-based
Settings in all cases: 0.0625 μg/ml, 48 hours, control set as 1-fold, average of three experiments
[1] = tested on: AANAT gene; assay: qPCR expression of AANAT gene in SHSY5Y cells
Experimental: (§1) SHSY5Y cells were seeded in a 6-well plate (1×10^5 cells/well) and then cultured for 24 hours. Thereafter, cells were divided into the control group and experimental group and were separately cultured in the following medium for 48 hours: • 1. Control group: DMEM medium; • 2. Experimental group: a medium the same as that of the control group, but additionally added with 0.0625 μg/ml of the compound of formula (I).
(§2) Thereafter, cells of the above groups were harvested and subjected to an RNA extraction with an RNA Extract Kit. The RNA thus obtained was then transcribed into cDNA by using a Reverse Transcriptase. Thereafter, the cDNA was subjected to a quantitative polymerase chain reaction (qPCR) by using a Step One Plus system and a KAPA SYBR FAST qPCR kit to determine the expression levels of genes related to melatonin (including TPH1, DDC, AANAT and ASMTL) in the cells of each group.
(§3) The above experimental steps were repeated three times, and then the results of the three experiments were averaged. Thereafter, the result of the control group was used as a basis (i.e., the gene expression level of the control group was set as 1-fold) to calculate the relative gene expression level of the experimental group.

[2] = tested on: ASMTL gene; assay: qPCR expression of ASMTL gene in SHSY5Y cells
Experimental: as §1, §2, §3

[3] = tested on: DDC gene; assay: qPCR expression of DDC gene in SHSY5Y cells
Experimental: as §1, §2, §3

[4] = tested on: TPH1 gene; assay: qPCR expression of TPH1 gene in SHSY5Y cells
Experimental: as §1, §2, §3

O=C1C(O)=Cc2cccc3ccc(-c4ccc(O)cc4)c1c23 [compound of formula (I), hydroxyanigorufone]
significantly increased: expression level of AANAT gene relative to control group [1] | expression level of ASMTL gene relative to control group [2] | expression level of DDC gene relative to control group [3] | expression level of TPH1 gene relative to control group [4]
